Assay results taken from paper PMC8955938, “c-Myc Protein Level Affected by Unsymmetrical Bisacridines Influences Apoptosis and Senescence Induced in HCT116 Colorectal and H460 Lung Cancer Cells” (International Journal of Molecular Sciences, 2022).
Several values for one entry are separate records, joined by “and”; a condition that tells them apart may be missing. Equal values may be shown once.

What was measured:
Format in all cases: cell-based, human
CCD 841 CoN cells = assay: MTT cell growth inhibition assay, CCD 841 CoN; conditions: CCD 841 CoN normal cells, 72 h
Method: To assess cell viability, the MTT assay was used. HCT116, H460, CCD 841 CoN and MRC-5 cells (20,000/well and 50,000/well for cancer and normal cells, respectively) were seeded in 24-well plates, and the following UAs were added at concentrations up to 10 μM: C-2028, C-2041, C-2045 and C-2053. Stock solutions (10 mM) were prepared in sterile water, as well as dilutions, also in water. After 72 h, 3-(4, 5-dimethylthiazol-2-yl)-2,5-diphenyltetrazolium bromide (MTT; 800 μg/well) was added for 3 h, then the formazan crystals were dissolved in DMSO, and absorbance was read at 540 nm. Each point was conducted at least 4 times, and data are expressed relative to controls. The concentration of the drug required to inhibit cells growth by 50 (IC50), 80 (IC80) and 90% (IC90) compared to untreated control cells was determined from the curves plotting survival as a function of dose.

HCT116 cells [1] = assay: Cell cycle analysis (PI, flow cytometry), HCT116; conditions: HCT116, IC90 doses; for cells with more than 4N DNA (polyploid): during the time of incubation (time not specified), control 10%; for cells in G2/M (4N DNA): during the treatment after accumulation at 24 h (time not specified)
Method: After drug treatment, trypsinized and floating cells (2 × 10^6) were pooled, washed twice with ice-cold PBS and fixed in 70% (v/v) ethanol overnight at −20 °C. Cells were stained with propidium iodide (PI) (BD Biosciences, San Jose, CA, USA) and monitored by FACS Accuri C6 (BD Biosciences, San Jose, CA, USA).

HCT116 cells [2] = assay: Nuclear morphology (Hoechst 33342), HCT116; conditions: HCT116, IC90 doses
Method: Nuclear morphology was examined under a fluorescence microscope (OLYMPUS BX60, […]) after staining with Hoechst 33342. Briefly, after drug treatment, HCT116, H460, CCD 841 CoN and MRC-5 cells were spun onto microscopic slides, fixed with methanol:acetic acid (3:1) for 15 min and stained with Hoechst 33342 (1 mg/mL) for 15 min. Cells were regarded as apoptotic based on the presence of condensed, fragmented chromatin. Enlarged cells containing multiple nuclei were considered as typical of mitotic catastrophe.

HCT116 cells [3] = assay: Annexin V/PI dual staining, HCT116; conditions: HCT116, IC90 doses, 120 h
Method: Annexin V–FITC binding was performed with an Annexin-V Fluos Staining kit (BD Biosciences, San Jose, CA, USA) according to manufacturer’s protocol. Briefly, after drug treatment, HCT116 and H460 cells (1 × 10^6) were trypsinized, washed twice with ice-cold PBS, pelleted and resuspended in 100 µL of binding buffer containing Annexin-V–FITC and PI. Cells were incubated for 15 min at room temperature in the dark, then diluted with 400 µL of binding buffer and analyzed by flow cytometry with FACS Accuri C6 (BD, San Jose, CA, USA). Cells with low FITC and PI fluorescence were considered viable. Cells that presented high FITC fluorescence but low PI fluorescence were regarded as early apoptotic. Late apoptotic cells presented high FITC and PI fluorescence. Necrotic cells had low FITC fluorescence and high PI fluorescence.

[4] = tested on: active caspase-3 in HCT116 cells; assay: Active caspase-3 flow cytometry, HCT116; conditions: HCT116, IC90 doses, 120 h
Method: (§1) Caspase-3 activity was determined using Alexa Fluor 647-conjugated anti-active caspase-3 antibody (BD Biosciences, San Diego, CA, USA) according to the manufacturer’s instructions. Briefly, HCT116 and H460 cells (1 × 10^6) were trypsinized, pelleted, washed twice with ice-cold PBS and fixed in Fixation Buffer for 20 min on ice. After fixation, cells were rinsed twice with Perm Wash Buffer, stained with Alexa Fluor 647-conjugated anti-active caspase-3 antibody for 30 min, rinsed with Perm Wash Buffer and analyzed by flow cytometry with FACS Accuri C6 (BD, San Jose, CA, USA).

[5] = tested on: cleaved PARP in HCT116 cells; assay: PARP cleavage flow cytometry, HCT116; conditions: HCT116, IC90 doses, up to 120 h
Method: as §1, with “PARP cleavage” for “Caspase-3 activity”, “anti-cleaved PARP” for “anti-active caspase-3”

[6] = tested on: cleaved PARP in H460 cells; assay: PARP cleavage flow cytometry, H460; conditions: H460, IC90 doses
Method: as §1, with “PARP cleavage” for “Caspase-3 activity”, “anti-cleaved PARP” for “anti-active caspase-3”

HCT116 cells [7] = assay: Mitochondrial transmembrane potential (JC-1), HCT116; conditions: HCT116, IC90 doses, 120 h
Method: (§2) Changes in the mitochondrial membrane potential (ΔΨm) were analyzed by flow cytometry using 5,5′,6,6′-tetrachloro-1,1′,3,3′-tetraethylbenzimidazolyl-carbocyanine iodide, JC-1 (BD Biosciences, San Jose, CA, USA) according to manufacturer’s specification. Briefly, after treatment, HCT116 and H460 cells (1 × 10^6) were trypsinized, pelleted, resuspended in media and stained with JC-1 for 15 min at 37 °C. After staining, cells were washed twice with assay buffer and analyzed by flow cytometry with FACS Accuri C6 (BD, San Jose, CA, USA). The loss of ΔΨm was monitored based on the decrease in JC-1 red fluorescence concurrent with the increase in green fluorescence.

H460 cells = assay: Mitochondrial transmembrane potential (JC-1), H460; conditions: H460, IC90 doses, 120 h
Method: as §2

HCT116 cells [8] = assay: Colony-forming assay, HCT116; conditions: HCT116, IC90 doses, already after 24 h of incubation
Method: The ability of cells to return to proliferation after UAs treatment was measured by a colony-forming assay. After drug treatment, 250 HCT116 and H460 cells were harvested and seeded in a new 6-well plate containing fresh medium without the drug and incubated for two weeks. Untreated cells were used as controls. After two weeks, colonies were fixed with 80% ethanol, stained with crystal violet, counted, and photos were taken.

Structure (SMILES)	IC90 (CCD 841 CoN cells; Homo sapiens)	IC50 (CCD 841 CoN cells; Homo sapiens, CCD-841CoN)	Poli (polyploid cells) (HCT116 cells [1]; 24 h)	cells in G1 (HCT116 cells [1]; 24 h)	cells in G2/M (HCT116 cells [1]; 24 h)	cells in S (HCT116 cells [1]; 24 h)	cells in Sub-G1 (HCT116 cells [1]; 24 h)	Poli (polyploid cells) (HCT116 cells [1]; 72 h)	cells in G1 (HCT116 cells [1]; 72 h)	cells in G2/M (HCT116 cells [1]; 72 h)	cells in S (HCT116 cells [1]; 72 h)	cells in Sub-G1 (HCT116 cells [1]; 72 h)	Poli (polyploid cells) (HCT116 cells [1]; 120 h)	cells in G1 (HCT116 cells [1]; 120 h)	cells in G2/M (HCT116 cells [1]; 120 h)	cells in S (HCT116 cells [1]; 120 h)	cells in Sub-G1 (HCT116 cells [1]; 120 h)	cells with more than 4N DNA (polyploid) (HCT116 cells [1])	cells in G2/M (4N DNA) (HCT116 cells [1])	annexin V positive cells (early and late apoptotic) (HCT116 cells [3])	further results
Cc1ccc([N+](=O)[O-])c2c(NCCCN(C)CCCNc3ccc4ncn5c6ccc(O)cc6c(=O)c3c45)c3ccccc3nc12 [Compound C-2045]	5.34 ± 1.85 µM	~300 nM	4.91 ± 2.33%	24.61 ± 2.63%	50.18 ± 2.39%	16.33 ± 1.34%	3.90 ± 0.83%	12.20 ± 1.85%	28.51 ± 4.31%	34.06 ± 3.35%	6.15 ± 0.70%	17.38 ± 4.00%	15.17 ± 3.74%	22.11 ± 2.54%	22.94 ± 2.48%	4.56 ± 1.19%	35.40 ± 5.84% and 35.4% and 30%	around 15%	~23%	~27.8%	IC50 (CCD 841 CoN cells): 338 ± 27 nM; apoptotic cells (nuclear morphology) (HCT116 cells [2]; 72 h): 20.6%; cells with active caspase-3 [4]: 39.3% and 40%; cells with cleaved PARP [5]: approximately 10%; cells with cleaved PARP ([6]; 72 h): 53.9%; cells with cleaved PARP ([6]; 120 h): 28.2%; cells with decreased mitochondrial transmembrane potential (ΔΨm) (HCT116 cells [7]): 30.9% and 30%; cells with decreased mitochondrial transmembrane potential (ΔΨm) (H460 cells): 62.5%; return to proliferation (colony formation) (HCT116 cells [8]): completely blocked their return to proliferation
Cc1ccc([N+](=O)[O-])c2c(NCCCN(C)CCCNc3ccc4ncn5c6ccccc6c(=O)c3c45)c3ccccc3nc12 [Compound C-2053]	4.1 ± 0.47 µM	240 ± 40 nM	8.89 ± 1.38%	22.34 ± 2.79%	44.81 ± 7.10%	19.19 ± 1.77%	3.06 ± 1.09%	11.02 ± 2.20%	35.18 ± 2.63%	36.32 ± 3.14%	5.43 ± 1.59%	10.45 ± 2.56%	14.62 ± 4.62%	30.06 ± 4.35%	27.20 ± 4.16%	4.10 ± 0.56%	23.64 ± 4.86% and 23.6%	around 15%	~23%	18.4%	apoptotic cells (nuclear morphology) (HCT116 cells [2]; 72 and 120 h): up to 6.4%; cells with active caspase-3 [4]: 20.9%; cells with cleaved PARP [5]: least degraded; cells with cleaved PARP ([6]; 72 h): 47.8%; cells with cleaved PARP ([6]; 120 h): 43.3%; cells with decreased mitochondrial transmembrane potential (ΔΨm) (HCT116 cells [7]): 23.5%; cells with decreased mitochondrial transmembrane potential (ΔΨm) (H460 cells): 67.8%; return to proliferation (colony formation) (HCT116 cells [8]): completely blocked their return to proliferation
